Experimental data from ChEMBL document CHEMBL5113408, “Design, synthesis and antitumour activity of novel 5(6)-amino-benzimidazolequinones containing a fused morpholine” (Eur J Med Chem, 2022).
Activity calls are given as the source filed them. The rule behind the calls is not given here.

Key:
MCF7 = assay: Antiproliferative activity against human MCF7 cells assessed as inhibition of cell growth by SRB assay; assay type: functional, cell-based
[1] = Antiproliferative activity against human L02 cells assessed as inhibition of cell growth incubated for 72 hrs by SRB assay; assay type: toxicity, cell-based
MGC-803 [2] = assay: Antiproliferative activity against human MGC-803 cells assessed as inhibition of cell growth incubated for 24 to 72 hrs by SRB assay; assay type: functional, cell-based; conditions: dose 0.25-8 µM, time 24-72 hrs, DDE = dose-dependent effect
HGC-27 [3] = assay: Inhibition of colony formation in human HGC-27 cells incubated for 24 hrs with fresh medium replacement for every two days measured for 11 days by crystal voilet staining based assay; assay type: functional, cell-based; conditions: dose 0.5-2 µM, time 11.0 day, DDE = dose-dependent effect
MGC-803 [4] = assay: Induction of apoptosis in human MGC-803 cells incubated for 48 hrs by Annexin-V FITC staining based flow cytometry analysis; assay type: functional, cell-based; conditions: dose 1-4 µM, DDE = dose-dependent effect
HGC-27 [5] = assay: Induction of mitochondrial membrane depolarization in human HGC-27 cells incubated for 48 hrs by flow cytometry analysis; assay type: functional, cell-based; conditions: dose 1-4 µM, DDE = dose-dependent effect
MGC-803 [6] = assay: Induction of apoptosis in human MGC-803 cells assessed as increase in bax/bcl-2 expression level at 1 to 4 uM incubated for 48 hrs by Western blot analysis; assay type: functional, cell-based; conditions: dose 1-4 µM
HGC-27 [7] = assay: Induction of apoptosis in human HGC-27 cells assessed as decrease in caspase 9 protein expression level at 1 to 4 uM incubated for 48 hrs by Western blot analysis; assay type: functional, cell-based; conditions: dose 1-4 µM
MGC-803 [8] = assay: Induction of apoptosis in human MGC-803 cells assessed as increase in cleaved caspase 3 protein expression level at 1 to 4 uM incubated for 48 hrs by Western blot analysis; assay type: functional, cell-based; conditions: dose 1-4 µM
MGC-803 [9] = assay: Induction of apoptosis in human MGC-803 cells assessed as increase in cleaved caspase 7 protein expression level at 1 to 4 uM incubated for 48 hrs by Western blot analysis; assay type: functional, cell-based; conditions: dose 1-4 µM
HGC-27 [10] = assay: Induction of apoptosis in human HGC-27 cells assessed as increase in cleaved caspase 9 protein expression level at 1 to 4 uM incubated for 48 hrs by Western blot analysis; assay type: functional, cell-based; conditions: dose 1-4 µM
MGC-803 [11] = assay: Induction of cell cycle arrest in human MGC-803 cells assessed as accumulation of cells at S phase at 1 uM incubated for 36 hrs by PI staining based flow cytometry analysis (reference value: 20.5%); assay type: functional
MGC-803 [12] = assay: Induction of cell cycle arrest in human MGC-803 cells assessed as accumulation of cells at G1 phase at 2 uM incubated for 36 hrs by PI staining based flow cytometry analysis (reference value: 45.8%); assay type: functional
HGC-27 [13] = assay: Induction of cell cycle arrest in human HGC-27 cells assessed as accumulation of cells at G1 phase at 1 uM incubated for 36 hrs by PI staining based flow cytometry analysis (reference value: 49.6%); assay type: functional
HGC-27 [14] = assay: Induction of cell cycle arrest in human HGC-27 cells assessed as accumulation of cells at S phase at 1 uM incubated for 36 hrs by PI staining based flow cytometry analysis (reference value: 8.87%); assay type: functional
HGC-27 [15] = assay: Induction of cell cycle arrest in human HGC-27 cells assessed as accumulation of cells at G2/M phase at 1 uM incubated for 36 hrs by PI staining based flow cytometry analysis (reference value: 26.2%); assay type: functional
HGC-27 [16] = assay: Induction of cell cycle arrest in human HGC-27 cells assessed as accumulation of cells at G1 phase at 2 uM incubated for 36 hrs by PI staining based flow cytometry analysis (reference value: 49.6%); assay type: functional
HGC-27 [17] = assay: Induction of cell cycle arrest in human HGC-27 cells assessed as accumulation of cells at G2/M phase at 2 uM incubated for 36 hrs by PI staining based flow cytometry analysis (reference value: 26.2%); assay type: functional
HGC-27 [18] = assay: Induction of cell cycle arrest in human HGC-27 cells assessed as accumulation of cells at G1 phase at 4 uM incubated for 36 hrs by PI staining based flow cytometry analysis (reference value: 49.6%); assay type: functional
HGC-27 [19] = assay: Induction of cell cycle arrest in human HGC-27 cells assessed as accumulation of cells at G2/M phase at 4 uM incubated for 36 hrs by PI staining based flow cytometry analysis (reference value: 26.2%); assay type: functional
MGC-803 [20] = assay: Induction of cell cycle arrest in human MGC-803 cells assessed as decrease in p-cdc2 level at 1 to 4 uM by Western blot analysis; assay type: functional, cell-based; conditions: dose 1-4 µM
MGC-803 [21] = assay: Induction of cell cycle arrest in human MGC-803 cells assessed as decrease in cyclin-B1 level at 1 to 4 uM by Western blot analysis; assay type: functional, cell-based; conditions: dose 1-4 µM
HGC-27 [22] = assay: Induction of cell cycle arrest in human HGC-27 cells assessed as decrease in p-cdc25c level at 1 to 4 uM by Western blot analysis; assay type: functional, cell-based; conditions: dose 1-4 µM
HGC-27 [23] = assay: Induction of cell cycle arrest in human HGC-27 cells assessed as decrease in p-cdc2 level at 1 to 4 uM by Western blot analysis; assay type: functional, cell-based; conditions: dose 1-4 µM
MGC-803 [24] = assay: Induction of ROS generation in human MGC-803 cells at 1 to 4 uM incubated for 24 hrs by flow cytometry analysis; assay type: functional, cell-based; conditions: dose 1-4 µM
HGC-27 [25] = assay: Induction of ROS generation in human HGC-27 cells at 1 to 4 uM incubated for 24 hrs by flow cytometry analysis; assay type: functional, cell-based; conditions: dose 1-4 µM
MGC-803 [26] = assay: Activation of ROS/JNK signalling in human MGC-803 cells assessed as increase in p-MKK4 level by Western blot analysis; assay type: cell-based; conditions: filed as activator, dose 1-4 µM, DDE = dose-dependent effect
HGC-27 [27] = assay: Activation of ROS/JNK signalling in human HGC-27 cells assessed as increase in p-ASK1 level by Western blot analysis; assay type: cell-based; conditions: filed as activator, dose 1-4 µM, DDE = dose-dependent effect
HGC-27 [28] = assay: Activation of ROS/JNK signalling in human HGC-27 cells assessed as increase in p-MKK4 level by Western blot analysis; assay type: cell-based; conditions: filed as activator, dose 1-4 µM, DDE = dose-dependent effect
MGC-803 [29] = assay: Induction of apoptosis in human MGC-803 cells incubated for 48 hrs by Annexin V-FITC and PI staining based flow cytometry analysis; assay type: functional
HGC-27 [30] = assay: Induction of DNA damage in human HGC-27 cells assessed as appearance of longer comet tail at 4 uM; assay type: functional, cell-based
HGC-27 [31] = assay: Induction of DNA damage in human HGC-27 cells assessed as increase in gamma-H2AX generation incubated for 24 hrs by immunofluorescence analysis; assay type: functional, cell-based
MGC-803 [32] = assay: Induction of DNA damage in human MGC-803 cells assessed as increase in p-Chk generation incubated for 48 hrs by Western blot analysis; assay type: functional, cell-based; conditions: DDE = dose-dependent effect
[33] = Toxicity in BALB/c mouse xenografted with human MGC-803 cells assessed as effect on uric acid level at 10 to 20 mg/kg, ip administered once every two days; assay type: organism-based; conditions: in vivo, dose 10-20 mg/kg
[34] = Toxicity in BALB/c mouse xenografted with human MGC-803 cells assessed as effect on creatinine level at 10 to 20 mg/kg, ip administered once every two days; assay type: organism-based; conditions: in vivo, dose 10-20 mg/kg
[35] = Toxicity in BALB/c mouse xenografted with human MGC-803 cells assessed as effect on ALT level at 10 to 20 mg/kg, ip administered once every two days; assay type: organism-based; conditions: in vivo, dose 10-20 mg/kg
[36] = Toxicity in BALB/c mouse xenografted with human MGC-803 cells assessed as effect on heart at 10 to 20 mg/kg, ip administered once every two days measured after 15 days by H and E staining based assay; assay type: organism-based; conditions: in vivo, 360 h, dose 10-20 mg/kg, time 15 day

## Cc1ccc(NC2=CC(=O)c3nc4n(c3C2=O)[C@H]2OC[C@@H](O)[C@H]2OC4)cc1C
MCF7
  IC50: 2.08 µM
[1]
  IC50 at 72 h: 24.8 µM
MGC-803 [2]
  Activity: Dde
HGC-27 [3]
  inhibition: Dde
MGC-803 [4]
  Activity: Dde
HGC-27 [5]
  Activity: Dde
MGC-803 [6]
  Activity: Active
HGC-27 [7]
  Activity: Active
MGC-803 [8]
  Activity: Active
MGC-803 [9]
  Activity: Active
HGC-27 [10]
  Activity: Active
MGC-803 [11]
  Activity: 35.4%
MGC-803 [12]
  Activity: 29.2%
HGC-27 [13]
  Activity: 49.3%
HGC-27 [14]
  Activity: 8.8%
HGC-27 [15]
  Activity: 28.8%
HGC-27 [16]
  Activity: 33.5%
HGC-27 [17]
  Activity: 32.3%
HGC-27 [18]
  Activity: 28%
HGC-27 [19]
  Activity: 33.3%
MGC-803 [20]
  Activity: Active
MGC-803 [21]
  Activity: Active
HGC-27 [22]
  Activity: Active
HGC-27 [23]
  Activity: Active
MGC-803 [24]
  Activity: Active
HGC-27 [25]
  Activity: Active
MGC-803 [26]
  Activity: Dde
HGC-27 [27]
  Activity: Dde
HGC-27 [28]
  Activity: Dde
MGC-803 [29]
  Activity: 55.4%
HGC-27 [30]
  Activity: Active
HGC-27 [31]
  Activity: Active
MGC-803 [32]
  Activity: Dde
[33]
  Activity: Non-Toxic
[34]
  Activity: Non-Toxic
[35]
  Activity: Non-Toxic
[36]
  Activity: Non-Toxic
